The results in this text go back to US9707239B2, “Compounds that modulate oxidative stress” (vTv Therapeutics LLC, priority 2011, dated 2017).

The structures appear in SMILES notation. Entries after “also recorded” stand apart in the source; their conditions may differ.

Holding throughout (format): cell-based, human
One data set has as its system HMOX1. Kind of data set: HMOX1 protein expression by immunofluorescence (primary screen, high-content imaging). As to conditions: NHLF cells. As for the experimental part:
NHLF cells were grown to 80% confluency and harvested by washing once with HEPES and then trypsinizing. Equal numbers ([…]) of NHLF cells were plated in 384 well optilux tissue culture (BD) plates. Cells were incubated overnight in FGM-2 medium prior to exposure to compound. Cells were treated with either DMSO or compound for 16 h. Cells were wash 2× with 1×PBS and fix with 4% Paraformaldyhyde for 15 min. The fixed cells were then permeablized with 0.1% Triton X-100 and blocked with 5% BSA in 1× PBS 0.05% Tween-20 for 15 min. HO-1 antibody (abcam) was used for immunostaining at 1:300 dilution in 1% BSA in 1×PBS for 1 hr. Cells were washed 2× with 1×PBS and secondary antibody goat anti-mouse Alexa 488 1:400 dilution (Invitrogen); Hoechst 1:2000 (Invitrogen) in 1% BSA in 1×PBS for 1 hr. The plate was washed 5× with 1×PBS and read at Hoechst Excitation (“Ex.”) 360 Emission (“Em.”) 535; Alexa 488 Ex. 480 Em. 535 using GE InCell 1000. Results were analyzed using GE InCell Analyzer software and represented as the fold change above DMSO treated cells.
A rapid, quantitative screening assay to detect HMOX1 levels in cells based on an immunofluorescent microscopy using an automated high-content imaging system was developed. […] The data are arrayed as in an IR chart with a calculated mean value for the plate and the 3-sigma upper and lower-confidence limits (UCL and LCL). […]

In another data set the test system is NQO1. Description: mRNA expression (Quantigene Plex) in NHLF cells: NQO1. The settings on record: Table 5, 6 h, mRNA normalized to GAPDH, above DMSO treated cells. As to the method:
(§1) Secondary growth of NHLF cells were used for all assays. Cell were thawed and then placed into culture in T225 flasks. The cells were grown to 80% confluency and harvested by washing once with HEPES buffered saline solution and then trypsinizing. Equal numbers (7×10^3 cells per well) of NHLF cells were plated in 96 well tissue culture plates (Corning). Cells were incubated overnight in FGM-2 medium prior to exposure to compound. Cells were treated with either DMSO or a compound as described below for 6 h. Preparation of cell lysates was carried out according to instructions using the Quantigene Reagent system 2.0 protocol (Panomics). mRNA induction was detected from cell lysate using the Quantigene Plex 2.0 Assay Kit (Panomics) on the Luminex platform (BIO-RAD). Expression of GAPDH mRNA was used as the internal control for the Quantigen Plex 2.0 Assay. The data in Tables 5 and 6 represents the fold change of target mRNA expression, normalized to control values, above DMSO treated cells.

The test system of another data set is TXNRD1. Kind of data set: mRNA expression (Quantigene Plex) in NHLF cells: TXNRD1. As to conditions: Table 5, 6 h, mRNA normalized to GAPDH, above DMSO treated cells. As for the experimental part:
as §1

The next data set concerns GADD45A. Kind of data set: mRNA expression (Quantigene Plex) in NHLF cells: GADD45A. The settings on record: Table 5, 6 h, mRNA normalized to GAPDH, above DMSO treated cells. As to the method:
as §1

The test system of the next data set is NHLF cells. Kind of data set: ROS measurements (H2DCF-DA imaging). The settings on record: 1 hr, cell-by-cell imaging, FIG. 3A/3B. An outline of the steps: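 Secondary-passage NHLF cells (2,000/well, overnight) loaded 30 min with H2DCF-DA, 10 μM ferric ammonium citrate and Hoechst, washed, then treated with compound in FBM-2 medium 1 h at 37 °C, 5% CO2. ROS quantified by automated fluorescence imaging of DCF signal.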

The next data set deals with Keap1. Kind of data set: HMOX1 induction after Keap1 silencing (shRNA). As to conditions: NHLF cells, FIG. 6. As for the experimental part:
Normal human lung fibroblasts were plated in a 12-well tissue culture dish at 16,000 cells/well and allowed to attach overnight. Regular medium was then replaced with 200 μl of fresh growth medium containing 8 μg/ml hexadimethrine bromide (polybrene). Lentiviral transduction particles were then added in the following amounts: Control shRNA (1.1×10^7 TU/ml, Sigma, cat# SHC002V), 15 μl for an MOI of 10; KEAP-1 shRNA (6.3×10^6 TU/ml, Sigma, cat# SHCLNV-TRCN0000046092), 63 μl for an MOI of 20. After 4 hours in the cell culture incubator, another 200 μl of growth medium was added on top of the original volume. Cells were replenished the next day with fresh complete growth medium and were allowed to recover for 24 hours, after which selection medium was applied (complete medium with 1 μg/ml puromycin).
Another method of testing the role of the Nrf2 regulatory pathway on compound activity is to determine the effect of silencing Keap1 on HMOX1 gene expression. It is known that deleting Keap1 will result in the induction of Nrf2 dependent genes but not, to any significant degree, HMOX1. The proposed explanation for this observation is that HMOX1 requires the concomitant derepression of Bach1 activity and that this event is more dependent on active processes (e.g., heme binding, changes in redox potential of the cell, phosphorylation of Bach1, etc.). We therefore tested the ability of Compound 13 and tool compounds to induce HMOX1 in the presence of silencing of Keap1 in normal human lung fibroblasts.
Normal human lung fibroblasts were tested with DMSO, CoPP, Compound 13, and two derivatives including Compound 4 and Compound 8. An electrophile, Compound 1, was also included in the test set. […] On the other hand, induction of HMOX1 by the electrophile Compound 1 was inhibited.

Take `O=C(Nc1ccc2cn[nH]c2c1)c1ccc2[nH]c(Nc3nc4ccccc4s3)nc2c1` [Compound 13, 2-(Benzothiazol-2-ylamino)-1H-benzoimidazole-5-carboxylic acid (1H-indazol-6-yl)-amide]: the EC50 in the data set on HMOX1 (Homo sapiens, immunofluorescence, dose response, FIG. 2, read-out: effective potency (HMOX1 induction)) is below 1000 nM. The “averaged signal intensity for HMOX1 staining versus upper confidence limit (UCL)” value in the data set with HMOX1 (primary screen, FIG. 1) is “significantly greater than the upper confidence limit”. Also, the results for the “NQO1 (fold induction)” value in the data set on NQO1 and with NQO1 (listed as #13) were “shown to induce” and 2.2 fold induction, respectively. In addition, the “TXNRD1 (fold induction)” value is “shown to induce” with TXNRD1 and 1.5 fold induction with TXNRD1 (listed as #13). The “GADD45A (fold induction)” value in the data set on GADD45A came to 0.89 fold induction. In addition, the “ROS production (in words)” value with NHLF cells was “modestly elevated ROS production; also recorded: little increase in ROS production”. For the same molecule, in the data set with Keap1, the “HMOX1 induction in the presence of Keap1 silencing” value is recorded as “unaffected in their ability to induce HMOX1 in the presence of Keap1 silencing; also recorded: behaves similarly to CoPP induction”.
